Results reported in patent US8426398B2 (Emory University, priority 2009, dated 2013).

Tests used:
tubulin [1] = assay: assembly of tubulin subunits into microtubules in vitro (light scattering); format: biochemical; conditions: for effect on tubulin polymerization: 25 μM
Protocol: (§1) FIG. 5 is a picture showing the fluorescence quenching of tubulin by Targetin. Panel A, quenching of tubulin fluorescence emission by Targetin in a concentration-dependent manner (▪) control, 10 μM (●), 20 μM (▴), 30 μM (▾), 50 μM ( ? ), 75 μM ( ? ) and 100 μM (♦) Panel B, double-reciprocal plot for Targetin binding to tubulin. […] Equivalent amount of solvent DMSO was used as a negative control.
(§2) However, at a four-fold concentration of Targetin (100 μM), it inhibited the rate and extent of tubulin polymerization by ˜17% (FIG. 5C).

tubulin [2] = conditions: cited from earlier work
[3] = tested on: cells expressing green fluorescent protein (GFP)-tagged α-tubulin; conditions: 30 second time period; cited from earlier work
[4] = tested on: melanoma, glioblastoma, ovarian, breast carcinoma, and prostate cancer cells; conditions: many cancer cell types; cited from earlier work
[5] = oral 300 mg/kg body weight to 600 mg/kg; cited from earlier work
folate receptor = target: T1, folate receptor (Homo sapiens, UniProt P15328); conditions: KB-31 cells, 3H-folic acid; cited from earlier work
T1 construct: determined in cultured KB-31 cells (nasopharyngeal epidermal carcinoma cell line) overexpressing the folate receptor using ^3H-folic acid; endogenous in cells; host or cells: KB-31 cells
T1 sequence (P15328 25-234): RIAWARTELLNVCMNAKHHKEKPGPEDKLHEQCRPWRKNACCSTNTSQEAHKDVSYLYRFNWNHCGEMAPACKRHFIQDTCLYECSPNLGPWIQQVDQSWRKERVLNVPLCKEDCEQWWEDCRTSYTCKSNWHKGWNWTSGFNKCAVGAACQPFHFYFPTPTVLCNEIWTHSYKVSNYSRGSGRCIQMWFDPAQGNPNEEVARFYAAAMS

tubulin [6] = assay: tubulin-fluorescence quenching titration; format: binding; conditions: 10-100 μM, compared with parent noscapine
Protocol: as §1, §2

[7] = tested on: porcine renal LLCPK-1 cells stably expressing GFP-tagged α-tubulin; assay: microtubule dynamics in living cells (plus ends of GFP-tagged α-tubulin MTs); format: cell-based; conditions: for Rate, Growing: individual microtubules in interphase cells
Protocol: FIG. 6 is a series of photographs showing how Targetin increases the pause-time of cellular MTs. A gallery of video frames, 6 seconds apart, of plus ends of several microtubules in control and Targetin treated cells.
To determine if Targetin affects MT dynamics in living cells, the life history of the plus ends of Targetin-treated cellular MTs was evaluated, resolvable individually at the cell periphery of porcine renal LLCPK-1 cells stably expressing green fluorescent protein (GFP)-tagged α-tubulin. These cells were treated either with Targetin in DMSO or DMSO alone. […] As expected in control cells, MTs alternated between phases of growth and shortening interrupted occasionally by a state of attenuated dynamic activity (pause), determined by noting the position of the plus ends over time. The control panels show different positions of MT plus ends in a 24 second time period (arrows represent fixed pixel position for reference).

[8] = tested on: variety of cancer cell types with varying degrees of folate receptor expression; assay: sulforhodamine B cellular proliferation assay; format: cell-based; conditions: irrespective of folate receptor status
Protocol: Our next goal was to determine whether differences in folate receptor overexpression affected cytotoxicity in response to Targetin. To this end, the ability of Targetin to inhibit cellular proliferation of a variety of cancer cell types with varying degrees of folate receptor expression was evaluated using a sulforhodamine B assay to determine total protein content (FIG. 7).

[9] = tested on: FR-α overexpressing cancer cells (SK-OV3 human ovarian carcinoma cells, U87 glioblastoma cells); assay: cell viability using Trypan blue (adherent live cells), 48 hours; format: cell-based
Protocol: Live cells remain adherent and exclude Trypan blue (although a few late stage dying cells that remain adherent are Trypan blue-positive, and are not counted as live adherent). The numbers of adherent live cells are quantified in panels B and D respectively.
An equal number of two types of cells, (SK-OV3 human ovarian carcinoma cells and U87 glioblastoma cells) were plated in 15 tissue culture dishes. Plates were divided into five groups of triplicates.
FIGS. 8A & B show phase images and quantification of cell viability using Trypan blue in SK-OV3 cells. FIGS. 8C & D show parallel data for human glioblastoma U87 cells. Data for two other FR-α cell lines are similar (not shown).

## COc1ccc2c(c1OC)C(=O)O[C@@H]2[C@H]1c2c(cc3c(c2OC)OCO3)CCN1C [Noscapine]
Tubulin [1]
  effect on tubulin polymerization: did not inhibit tubulin polymerization
Tubulin [2]
  apparent stoichiometry of binding to tubulin: 0.95±0.02 noscapine molecule per tubulin dimer subunit
[3]
  MT dynamics (position of plus ends): suppressed MT dynamics
[4]
  effect on cell cycle and cell death: brief mitotic pause followed by extensive apoptosis
[5]
  drug bioavailability on doubling the oral dose: did not increase

## Nc1nc(O)c2nc(CNc3ccc(C(=O)N[C@@H](CCC(=O)O)C(=O)O)cc3)cnc2n1 [folic acid]
Folate receptor
  in vitro binding affinity: 41 nmol/L

## Noscapine-folate [Targetin]
Tubulin [6]
  tubulin binding activity (quenching of tubulin fluorescence): does retain the tubulin binding activity
Tubulin [1]
  effect on tubulin polymerization: did not inhibit tubulin polymerization
Tubulin [1]; 100 μM
  inhibition of the rate and extent of tubulin polymerization: ~17%
[7]; Targetin 5 μM
  Average pause: 10.25 ± 1.25 s
  Dynamicity: 4.52 ± 1.21 μm/min
  Percent of total time, Attenuation: 32.5%
  Percent of total time, Growing: 35.2%
  Percent of total time, Shortening: 28.5%
  Rate, Shortening: 11.78 ± 1.21 μm/min
  Transition frequency, Catastrophe: 0.079 ± 0.07 s⁻¹
  Transition frequency, Rescue: 0.07 ± 0.012 s⁻¹
  Rate, Growing: 8.72 ± 1.32 μm/min
[7]; Targetin 10 μM
  Average pause: 14.52 ± 2.36 s
  Dynamicity: 2.75 ± 1.05 μm/min
  Percent of total time, Attenuation: 44.8%
  Percent of total time, Growing: 24.3%
  Percent of total time, Shortening: 20.1%
  Rate, Shortening: 9.92 ± 1.25 μm/min
  Transition frequency, Catastrophe: 0.072 ± 0.05 s⁻¹
  Transition frequency, Rescue: 0.059 ± 0.019 s⁻¹
  Rate, Growing: 7.15 ± 0.56 μm/min
[7]; summary statement
  MT-binding and MT dynamics attenuating activity relative to noscapine: ~3 fold
[8]
  potency in inhibiting cellular proliferation relative to noscapine: about 3 fold
[9]; 10 μM Targetin vs 25 μM noscapine, FR-α overexpressing cell lines
  effectiveness compared with noscapine (adherent live cells): significantly more effective than noscapine
[9]; 50 μM folic acid + 10 μM Targetin, FR-α overexpressing cancer cells
  effect of free folic acid on Targetin toxicity: free folic acid mitigates the Targetin toxicity
